Data reported in US20260166313A1, “WIRELESS PATCH SYSTEM FOR TRANSDERMAL, TRANSMUCOSAL AND DENTAL ELECTRICAL DRUG DELIVERY” (priority 2015, published 2026).

Assay: ACEK effect (DEP, ACEO, ACET) on drug particles over the inductively powered IDE, observed by light microscopy
Format: physicochemical
Conditions: for negative DEP (nDEP) detection / ACET effect detection: any frequency range; for negative DEP (nDEP) detection: DI water
Description: In order to study the functionality of the patch in terms of a demodulation circuit and ACEK effect, a very simple set-up was constructed which is shown in FIG. 2C. The experimental set-up includes the dental patch, an optical microscope, AC waveform generators, a digital oscilloscope and some probe connectors. A microchamber was sealed over the IDE to hold the solution (FIG. 2C). […] The movement of particles was observed by an optical microscope NIKON ECLIPSE LV100 (Nikon Instruments, Inc., Melville, New York, United States of America) and the images from the microscope were acquired by a Roper Scientific (Tucson, Arizona, United States of America) digital camera and subsequently transferred to a computer. An AM signal with the amplitude of 10 V was applied to the primary coil. The AM signal applied to the primary coil was generated by two Agilent Arbitrary Waveform Generators (model 33220A). The carrier signal frequency was 8 MHz. The separation between primary and secondary coil is 10 mm. An Agilent Mixed Signal Oscilloscope (model MSO6012A) was used to record the demodulated signal. […] The frequency of the modulating signal was continuously swept in order to find an appropriate frequency at which ACEK effect occurs. […] The ACEK effect on Tetracycline, Acetaminophen, Benzocaine and Lidocaine was studied.

negative DEP (nDEP) detection | frequency of maximum ACEO vortices (field 15 Vpp/mm) [KHz] | SMILES | ACET effect detection | frequency of maximum ACEO vortices (field 10 Vpp/mm) [Hz]
No negative DEP (nDEP) was detected | – | CC(=O)Nc1ccc(O)cc1 [acetaminophen] | – | –
No nDEP or ACET effects were detected | 1 | CCOC(=O)c1ccc(N)cc1 [benzocaine] | No nDEP or ACET effects were detected | –

SMILES | negative DEP (nDEP) detection | frequency of maximum ACEO vortices (field 15 Vpp/mm) [KHz] | ACET effect detection | frequency of maximum ACEO vortices (field 10 Vpp/mm) [Hz]
CCN(CC)CC(=O)Nc1c(C)cccc1C [lidocaine] | No nDEP or ACET effects were detected | – | No nDEP or ACET effects were detected | 500
